Data on four molecules can be found in patent publication US9593149B2, “Amylin and calcitonin receptor agonist” (Novo Nordisk A/S, priority 2014, dated 2017).

Structures are written as SMILES. Values after ≈ are worked out from the molar mass of the structure shown. Numbered stars: 1 amine (or outer) side, 2 acyl side, 3 side chain; on linkers, the order of the positions; unused ones are H or OH. Peptide text beside a SMILES is read from it. * marks the point of attachment. C20 diacid = O=C(O)CCCCCCCCCCCCCCCCCCC(=O)*; C18 diacid = O=C(O)CCCCCCCCCCCCCCCCC(=O)*; γGlu = O=C(O)[C@H](CCC(=O)[*:2])N[*:1]

The nature of the data set: Assay (IV) determination of solubility. It counts as physicochemical. How it is done: Assay (IV)—Determination of Solubility
The mimylin peptide was dissolved in water at ˜500 nmol/ml and mixed 1:1 with a series of buffers (100 mM glycylglycine pH 3.0, 100 mM glycylglycine pH 4.0, 100 mM glycylglycine pH 5.0, 100 mM bistrispropane pH 6.0, 100 mM bistrispropane pH 6.5, 100 mM bistrispropane pH 7.0, 100 mM bistrispropane pH 7.5, 100 mM bistrispropane pH 8.0).

In general, solubility refers to the dissolved amount per volume that the medium holds. Take `CC(C)C[C@H](NC(=O)[C@H](CCC(=O)O)NC(=O)[C@H](Cc1cnc[nH]1)NC(=O)[C@H](CC(C)C)NC(=O)[C@H](CCC(=O)O)NC(=O)[C@H](C)NC(=O)[C@H](CO)NC(=O)[C@H](CC(C)C)NC(=O)[C@H](CCCNC(=N)N)NC(=O)CNC(=O)[C@H](CC(C)C)NC(=O)[C@@H](NC(=O)[C@H](C)NC(=O)[C@@H](NC(=O)[C@H](CO)NC(=O)[C@@H](NC(=O)[C@H](CCC(=O)O)NC(=O)[C@H](CO)NC(=O)[C@H](C)NC(=O)CC[C@H](NC(=O)CCCCCCCCCCCCCCCCC(=O)O)C(=O)O)C(C)C)[C@@H](C)O)C(C)C)C(=O)N[C@@H](C)C(=O)N[C@H](C(=O)N[C@@H](CC(C)C)C(=O)N1CCC[C@H]1C(=O)N[C@@H](CCCNC(=N)N)C(=O)N[C@H](C(=O)N[C@@H](CCC(=O)O)C(=O)N[C@H](C(=O)NCC(=O)N[C@@H](CO)C(=O)NCC(=O)N[C@@H](CO)C(=O)N1CCC[C@H]1C(N)=O)[C@@H](C)O)[C@@H](C)O)[C@@H](C)O` [compound 86, [N-terminal(C18 diacid-gGlu), des1, 5V, 9V, 30S, 31G]mimylin] ({C18 diacid-γGlu}-ASEVSTAVLGRLSAELHELATLPRTETGSGSP-NH2): the Solubility result (pH 3.0) is “≧200 μM”; the Solubility result (pH 4.0) is listed as “≧200 μM”; the Solubility result (pH 5.0) was “≧200 μM”; the Solubility result (pH 6.5) is recorded as “≧200 μM”; the Solubility entry (pH 7.0) is given as “≧200 μM”; the Solubility result (pH 7.5) is given as “≧200 μM”. The Solubility entry (pH 8.0) is given as “≧200 μM”. This molecule returned a solubility at 18 h (pH 6.0) of 38 µM (≈ 139 µg/mL).
On to `CC(C)C[C@H](NC(=O)[C@H](C)NC(=O)[C@H](C)NC(=O)[C@@H](NC(=O)[C@H](CO)NC(=O)[C@H](CC(C)C)NC(=O)[C@H](CCC(N)=O)NC(=O)[C@H](CO)NC(=O)[C@H](C)NC(=O)CC[C@H](NC(=O)CCCCCCCCCCCCCCCCC(=O)O)C(=O)O)[C@@H](C)O)C(=O)NCC(=O)N[C@@H](CCCNC(=N)N)C(=O)N[C@@H](CC(C)C)C(=O)N[C@@H](CO)C(=O)N[C@@H](C)C(=O)N[C@@H](CCC(N)=O)C(=O)N[C@@H](CC(C)C)C(=O)N[C@@H](Cc1cnc[nH]1)C(=O)N[C@@H](CCC(=O)O)C(=O)N[C@@H](CC(C)C)C(=O)N[C@@H](C)C(=O)N[C@H](C(=O)N[C@@H](CC(C)C)C(=O)N1CCC[C@H]1C(=O)N[C@@H](CCCNC(=N)N)C(=O)N[C@H](C(=O)N[C@@H](CCC(=O)O)C(=O)N[C@H](C(=O)NCC(=O)N[C@@H](CO)C(=O)NCC(=O)N[C@@H](CO)C(=O)N1CCC[C@H]1C(N)=O)[C@@H](C)O)[C@@H](C)O)[C@@H](C)O` [compound 87, [N-terminal(C18 diacid-gGlu), des1, 4Q, 16Q, 30S, 31G]mimylin] ({C18 diacid-γGlu}-ASQLSTAALGRLSAQLHELATLPRTETGSGSP-NH2), for which the Solubility entry is “≧200 μM” (pH 3); “≧200 μM” (pH 4); “≧200 μM” (pH 5); “≧200 μM” (pH 6); “≧200 μM” (pH 6.5); “≧200 μM” (pH 7). Further, the Solubility entry is, setting by setting: (pH 7.5) “≧200 μM”; (pH 8) “≧200 μM”.
As to `CC(C)C[C@H](NC(=O)[C@H](C)NC(=O)[C@H](C)NC(=O)[C@@H](NC(=O)[C@H](CO)NC(=O)[C@H](CC(C)C)NC(=O)[C@H](CCC(=O)O)NC(=O)[C@H](CO)NC(=O)[C@H](C)NC(=O)CC[C@H](NC(=O)CCCCCCCCCCCCCCCCCCC(=O)O)C(=O)O)[C@@H](C)O)C(=O)NCC(=O)N[C@@H](CCCNC(=N)N)C(=O)N[C@@H](CC(C)C)C(=O)N[C@@H](CO)C(=O)N[C@@H](C)C(=O)N[C@@H](CCC(=O)O)C(=O)N[C@@H](CC(C)C)C(=O)N[C@@H](Cc1cnc[nH]1)C(=O)N[C@@H](CCC(=O)O)C(=O)N[C@@H](CC(C)C)C(=O)N[C@@H](C)C(=O)N[C@H](C(=O)N[C@@H](Cc1ccc(O)cc1)C(=O)N1CCC[C@H]1C(=O)N[C@@H](CCCNC(=N)N)C(=O)N[C@H](C(=O)N[C@@H](CCC(=O)O)C(=O)N[C@H](C(=O)NCC(=O)N[C@@H](CO)C(=O)NCC(=O)N[C@@H](CO)C(=O)N[C@@H](Cc1ccc(O)cc1)C(=O)O)[C@@H](C)O)[C@@H](C)O)[C@@H](C)O` [compound 88, [N-terminal(C20 diacid-gGlu), des1, 23Y, 30S, 31G, 33Y, C-terminal(−)]mimylin] ({C20 diacid-γGlu}-ASELSTAALGRLSAELHELATYPRTETGSGSY-OH), the Solubility entry is, setting by setting: (pH 3.0) “≧200 μM”; (pH 6.0) “≧200 μM”; (pH 6.5) “≧200 μM”; (pH 7.0) “≧200 μM”; (pH 7.5) “≧200 μM”; (pH 8.0) “≧200 μM”. This molecule also returned a solubility at 18 h (pH 4.0) of 1 µM (≈ 3.79 µg/mL) and a solubility at 18 h (pH 5.0) of 6 µM (≈ 22.8 µg/mL).
Turning to `CC(C)C[C@H](NC(=O)[C@H](CO)NC(=O)[C@H](C)NC(=O)[C@@H](NC(=O)[C@H](CO)NC(=O)[C@H](CC(C)C)NC(=O)[C@H](CCC(=O)O)NC(=O)[C@H](CO)NC(=O)[C@H](C)NC(=O)CC[C@H](NC(=O)CCCCCCCCCCCCCCCCCCC(=O)O)C(=O)O)[C@@H](C)O)C(=O)NCC(=O)N[C@@H](CCCNC(=N)N)C(=O)N[C@@H](CC(C)C)C(=O)N[C@@H](CO)C(=O)N[C@@H](C)C(=O)N[C@@H](CCC(=O)O)C(=O)N[C@@H](CC(C)C)C(=O)N[C@@H](Cc1cnc[nH]1)C(=O)N[C@@H](CCC(=O)O)C(=O)N[C@@H](CC(C)C)C(=O)N[C@@H](C)C(=O)N[C@H](C(=O)N[C@@H](Cc1ccc(O)cc1)C(=O)N1CCC[C@H]1C(=O)N[C@@H](CCCNC(=N)N)C(=O)N[C@H](C(=O)N[C@@H](CCC(=O)O)C(=O)N[C@H](C(=O)NCC(=O)N[C@@H](CO)C(=O)NCC(=O)N[C@@H](CO)C(=O)N[C@@H](Cc1ccc(O)cc1)C(N)=O)[C@@H](C)O)[C@@H](C)O)[C@@H](C)O` [compound 91, [N-terminal(C20 diacid-gGlu), des1, 9S, 23Y, 30S, 31G, 33Y]mimylin] ({C20 diacid-γGlu}-ASELSTASLGRLSAELHELATYPRTETGSGSY-NH2), the Solubility result reads like this: (pH 3.0) “≧200 μM”; (pH 6.0) “≧200 μM”; (pH 6.5) “≧200 μM”; (pH 7.0) “≧200 μM”; (pH 7.5) “≧200 μM”; (pH 8.0) “≧200 μM”. Moreover, the solubility at 18 h reads like this: (pH 4.0) 7 µM (≈ 26.7 µg/mL); (pH 5.0) 29 µM (≈ 110 µg/mL).
